According to article PMC6317055, “Metabolites from the Paracel Islands Soft Coral Sinularia cf. molesta” (Marine Drugs, 2018):

Columns and labels:
[1] = biological target: T1, protein tyrosine phosphatase 1B (PTP1B) (Homo sapiens, UniProt P18031); assay: PTP1B inhibitory assay, pNPP method
T1 sequence (P18031 1-435): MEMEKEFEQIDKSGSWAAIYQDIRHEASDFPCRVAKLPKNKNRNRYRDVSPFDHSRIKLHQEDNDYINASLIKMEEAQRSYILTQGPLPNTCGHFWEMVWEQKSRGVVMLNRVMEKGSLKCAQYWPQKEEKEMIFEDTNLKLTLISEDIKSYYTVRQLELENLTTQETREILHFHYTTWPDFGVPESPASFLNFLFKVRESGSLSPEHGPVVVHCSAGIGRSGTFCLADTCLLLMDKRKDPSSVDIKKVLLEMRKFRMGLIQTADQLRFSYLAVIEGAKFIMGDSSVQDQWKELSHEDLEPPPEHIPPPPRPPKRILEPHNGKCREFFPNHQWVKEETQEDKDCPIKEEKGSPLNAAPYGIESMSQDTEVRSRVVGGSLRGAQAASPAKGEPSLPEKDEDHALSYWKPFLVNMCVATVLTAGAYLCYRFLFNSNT
Method: These isolated sesquiterpenes were also assessed for their inhibitory activities against PTP1B.

[2] = Cytotoxicity assay, SRB method, HeLa; assay type: cell-based; settings: human, adriamycin positive control, read-out: cytotoxicity IC50 against HeLa cell lines
Method: (§1) Considering the reported cytotoxic activities of some sesquiterpenes, cyclopentenone derivatives, and cembranoid diterpenes, all the compounds were evaluated for their cytotoxic activities against HeLa (human cervical carcinoma), HCT-116 (human colon carcinoma), BEL-7402 (human hepatocellular carcinoma), K562 (human leukemia), and Jurkat (human acute leukemia T) tumor cell lines.

[3] = Cytotoxicity assay, SRB method, HCT-116; assay type: cell-based; settings: human, HCT-116 cells (human colon carcinoma); HCT-116, SRB method, adriamycin positive control; read-out: cytotoxicity IC50 against HCT-116 cell lines
Method: as §1

[4] = HeLa cells (human cervical carcinoma)

| Compound | IC50 [1] [µM] | IC50 [2, 4] [µM] | further results |
| --- | --- | --- | --- |
| C=C/C(C)=C\CCC(C)Cc1cc(C(=O)O)co1 (stereo not shown) [Compound 8, (5′Z)-5-(2′,6′-Dimethylocta-5′,7′-dienyl)-furan-3-carboxylic acid] | 1.24 | – | – |
| C=C(C)C1CC2=C(C(=O)OC)C=C(O2)C(O)C(C)(O)CC2C=C(C(=O)O2)C(OC(C)=O)C1 (stereo not shown) [Compound 14, Molestin E] | – | – | IC50 [2]: 5.26 µM; IC50 [3]: 8.37 µM |
| C=C(C)[C@@H]1C/C=C2\C(=O)O[C@@H](C[C@]3(C)CC(=O)[C@H](CC(=O)C1)O3)[C@@H]2O [Compound 17, 5-epi-sinuleptolide] | – | 6.66 | – |
| C=C(C)[C@@H]1C/C=C2\C(=O)O[C@@H](C[C@]3(C)CC(=O)[C@@H](CC(=O)C1)O3)[C@@H]2O [Compound 18, sinuleptolide] | – | 6.1 | – |

Second part, led by results:

| IC50 [1] [µM] | Compound | IC50 [2, 4] [µM] | further results |
| --- | --- | --- | --- |
| 218 | CC(C)C1=CC2=C(C(=O)C[C@@]2(C)O)[C@H](C)CC1 [Compound 4, Molestin C] | – | – |
| 344 | COC12CCC(C)(O)C1=CC(=O)CCC2C (stereo not shown) [Compound 5, Molestin D] | – | – |
